These results are taken from patent US20110034385A1, “Compositions Useful for the Treatment of Diabetes and Other Chronic Disorder” (NATIONAL INSTITUTE OF IMMUNOLOGY, priority 2008, published 2011).

Series [1] has as its system rats with kaolin/carrageenan (KC) arthritis. The series is described as follows: Hot plate test in kaolin/carrageenan arthritis. Type of series: in vivo, rat. How it is done:
Male wistar rats, weighing 180-220 g were selected and fed ad libitum. After four days of acclimatization, the rats were divided into five groups. Group I—control, Group II—Ibuprofen (10 mg/kg b.wt.), Group III—Ibuprofen (50 mg/kg b.wt.), Group IV—Ibuprofen coupled to transthyretin (TTR) or GNNQQNY injected intraperitoneally and Group V—carrageenin control. Groups II-V was anesthetized with halothane and KC arthritis was induced by an intra-articular injection of a mixture of 3% kaolin and 3% carrageenan (0.1 ml in sterile saline) into the synovial cavity of right knee joint. The joint was then manipulated by rapid flexion and extension movements for 1 min. Half an hour after injection of kaolin/carrageenan, the animals were treated as indicated above, with group II and II receiving daily injections of Ibuprofen orally. In the hot plate test method, rats from each group were placed on an analgesiometer, at a temperature of 55° C., and the latency in licking their paw was determined with a stop watch, one hour after treatment on day one (FIG. 32a), and thereafter everyday for four days (FIG. 32b). A 90-s cut-off time was imposed to prevent tissue damage.

For series [2], the system named is ovariectomized (OVX) rats. To be noted: rat, in vivo.
Protocol: 44 female Sprague-Dawley rats (Charles River Laboratory, Wilmington, Mass.), approximately 90 days of age with an average body weight of 230 g were grouped into four groups at the beginning of the study. All rats were anesthetized with an intraperitoneal injection of ketamine hydrochloride and xylazine at doses of 50 and 10 mg/kg body weight (BW), respectively. Bilateral ovariectomies were performed in three groups from a dorsal approach. All rats were housed individually at 25° C. with a 12 h light/12 h dark cycle. The food consumption of ovariectomized (OVX) rats was restricted to that of the control rats to minimize increase in the body weight associated with ovariectomy. All rats were treated for 8 weeks with vehicle or Human/salmon CT (Sigma) either intermittently by subcutaneous injection or continuously by Alzet osmotic minipumps (Model 2ML4; Alza Corp., Palo Alto, Calif.) containing 200 μl of either CT (4 μg/kg) or SCA (Supramolecular calcitonin assembly) (2 mg/ml) in 2% mannitol, designed to deliver the solutions at a constant rate of 2.5 μl/h for 28 days. The intermittent treatments started a day after surgery. The minipumps for continuous CT or Calcitonin SCA or vehicle treatments were implanted at the time of surgery (day 0) and replaced after 3 weeks in case of continuous CT and vehicle treatment. […] For subcutaneous injections of CT, the hormone was dissolved in a vehicle of 2% mannitol.
Half of the OVX rats from this group were injected subcutaneously on alternate days with 2% mannitol as a vehicle. The remaining OVX rats in this group were implanted subcutaneously with Alzet osmotic minipumps for continuous infusion of vehicle.
Each OVX rat of one group was injected subcutaneously on alternate days with salmon CT at a dose of 16 U/kg BW (4 μg/kg b wt), and the other was implanted subcutaneously with an Alzet osmotic minipump for continuous infusion of human CT. The daily dose delivered to each rat by the minipump was 8 U/kg BW (2 μg/kg BW), which was equivalent to the dose given to the preceding group through subcutaneous injections on alternate days (16 U/kg).
Serum samples were stored at −80° C. until analyzed for their CT concentration by immunoassay methods with a commercially available kit (Bio-Merica). […] Calcitonin in serum was measured by an immunoassay kit.
Data are expressed as the mean±standard deviation (SD) for each group. Statistical differences were evaluated by analysis of variance. P values<0.05 were considered to be significant.
The next series concerns MCF 7 cells. As to the kind of experiment: MTT cell proliferation assay. Type of series: cell-based. Particulars: 3 days after treatment. How it is done: Cells were plated in 24-well plates with 10,000 cells/well in regular DMEM media containing 10% FBS. All treatments were done in triplicates. Growth was measured 3 days after treatment. Growth was assayed by the MTT assay. A total of 50 μl of 5 mg/ml MTT solution in PBS was added to each well. After incubation for 4 h at 37° C., formazan crystals were lysed with 500 μl of solubilization solution (20% SDS, 50% DMSO). Absorbance was measured with a plate reader at 570 nm using a 670-nm differential filter.

As to `CC(C)Cc1ccc(C(C)C(=O)O)cc1` (centres unmarked) [Ibuprofen], the “latency in licking paw (heat endured)” value in series [1] (10 mg/kg b.wt orally) was “up to 12 sec”; in series [1] (50 mg/kg b.wt orally), ≤ 17 s.

On to `CC(C)C[C@H](NC(=O)[C@H](CCCCN)NC(=O)CNC(=O)[C@H](CC(C)C)NC(=O)[C@@H](NC(=O)[C@@H]1CSSC[C@H](N)C(=O)N[C@@H](CO)C(=O)N[C@@H](CC(N)=O)C(=O)N[C@@H](CC(C)C)C(=O)N[C@@H](CO)C(=O)N[C@@H]([C@@H](C)O)C(=O)N1)C(C)C)C(=O)N[C@@H](CO)C(=O)N[C@@H](CCC(N)=O)C(=O)N[C@@H](CCC(=O)O)C(=O)N[C@@H](CC(C)C)C(=O)N[C@@H](Cc1c[nH]cn1)C(=O)N[C@@H](CCCCN)C(=O)N[C@@H](CC(C)C)C(=O)N[C@@H](CCC(N)=O)C(=O)N[C@H](C(=O)N[C@@H](Cc1ccc(O)cc1)C(=O)N1CCC[C@H]1C(=O)N[C@@H](CCCNC(=N)N)C(=O)N[C@H](C(=O)N[C@@H](CC(N)=O)C(=O)N[C@H](C(=O)NCC(=O)N[C@@H](CO)C(=O)NCC(=O)N[C@H](C(=O)N1CCC[C@H]1C(N)=O)[C@@H](C)O)[C@@H](C)O)[C@@H](C)O)[C@@H](C)O` [SCA], for which, in series [2], the “Calcitonin (serum)” value is reported as 19.1 ± 4.2, the “antibody against salmon calcitonin” value is “negligible”, the “serum levels of calcitonin” value was 19 pg/mL and the “time depot keeps on releasing calcitonin” value is listed as 6-8 weeks. Besides, the “time serum calcitonin maintained at a higher level” value in series [2] is given as “up to 60 days”.

Regarding “IGF 1: Insulin like growth factor I, positive control for proliferation of MCF 7 cells”, in the series with MCF 7 cells, the “proliferation of MCF 7 cells” value was “mitogenic”.
